# Tests used:
# [1] = Locomotor activity in telemetrized rats (infrared sensor); format: in vivo, rat
# Method: (§1) Five months-old male normotensive Sprague-Dawley rats (508±18 g, Harlan, Horst, The Netherlands) were housed in solid bottomed Plexiglas cages with dust free wood chippings and a cardboard tube. Holding rooms were maintained under a 12-h light/dark cycle (lights off: 1500 h). Ambient temperature was 18.0 to 22.0° C. and relative air humidity of 40 to 60%. A dim red light was the sole source of illumination during the dark period. The rats had ad libitum standard chow (Altromin 1324, 10% kcal from fat, energy density 2.85 kcal per g, Altromin GmbH, Lage, Germany) and water. All experiments were approved (permission no. 2007/561-1343) and conducted in accordance with the guidelines of the Animal Experimentation Inspectorate, Ministry of Justice, Denmark.
# Upon 2-3 weeks of post-surgery recovery, the rats were transferred to fully automated food intake monitoring cages (HM-2, MBRose, Faaborg, Denmark) modified to simultaneously determine individualized food intake (by microchip, see below) and cardiovascular condition (by telemetry). For combined telemetry analysis, two receivers (RPC-1, Data Sciences International, St. Paul, Minn.) were placed in the bottom of each HM-2 food intake monitoring cages thereby fully covering the cage surface area. […] Locomotor activity was detected by an integrated infrared sensor placed above the cage. […] Body weight was measured daily. […]
# Data were fed into a standard graphic and statistical analysis program (GraphPad Prism v.4.03). Body weight data were calculated as absolute values (g) or daily body weight gain relative (control level=100%) to the first day of drug administration (day 0). Body weight gain and food intake were expressed as means±S.E.M of n individual animals. After acquisition of telemetry data, 12-hour means were calculated using Microsoft Excel 2007. […] All data were evaluated using a repeated-measure one-way ANOVA with Tukey's post-hoc test was applied to perform statistical comparisons between treatment groups. […]
# [2] = Telemetric monitoring of heart rate and blood pressure in rats; format: in vivo, rat
# Method: as §1
# The rats were implanted at Harlan laboratories, Horst, the Netherlands, with Data Science International (DSI, St. Paul, USA) Physiotel PA-C40 transmitters according to the manufactures description. In brief, the rats were anaesthetized with isoflurane, ventilated, and a laparotomy was performed under aseptic conditions. A pressure catheter was inserted and sealed in place with Vetbond (3M, St. Paul, USA) into the isolated abdominal aorta. Finally, the transmitter was placed on top of the intestines, in parallel to the long axis of the body, and secured to the abdominal wall, where after the abdominal muscle layer and skin was closed with solvable sutures. The animals were allowed full post-surgical recovery before shipment. Blood pressure (systolic and diastolic arterial blood pressure) and heart rate (pulse rate) data were collected at a sampling rate of 500 Hz using Dataquest A.R.T (v.4.3) and Ponemah software (v.5.0) (DSI, St. Paul, USA) using factory-provided calibration values for the individual transmitters and an Ambient Pressure Reference Monitor (DSI, St. Paul, USA) to ensure accurate blood pressure measurements. Data were collected continuously for 48 h and binned in 5 s intervals.
# Upon 2-3 weeks of post-surgery recovery, the rats were transferred to fully automated food intake monitoring cages (HM-2, MBRose, Faaborg, Denmark) modified to simultaneously determine individualized food intake (by microchip, see below) and cardiovascular condition (by telemetry). For combined telemetry analysis, two receivers (RPC-1, Data Sciences International, St. Paul, Minn.) were placed in the bottom of each HM-2 food intake monitoring cages thereby fully covering the cage surface area. The modified HM-2 food intake monitoring cages were placed in a modified ventilated cabinet with lightproof doors and a light kit for cabinet-based control of light-dark cycle (Scanbur BK, Karslunde, Denmark) being similar to that in the holding rooms. Cabinet temperature was 24.0 to 26.0° C. and relative air humidity of 40 to 60%. The animals were habituated to the HM-2 food intake monitoring system for at least 5 days prior to initiation of drug treatment procedures. Prior to re-housing to the fully automated food intake monitoring cages, the rats were subcutaneuosly injected with a microchip (#402575, eVet, Haderslev, Denmark) to simultaneously identify, and in real-time mode to track feeding behavior of each individual animal throughout the entire experiment. Locomotor activity was detected by an integrated infrared sensor placed above the cage. Standard HM-2 control unit settings are reported previously in further details^7. All drugs and saline vehicle were administered 30 min before dark onset. All rats received the same treatment in each individual experiment, i.e. a parallel study design was used, and a wash-out period of at least 5 days was used between treatments to assure re-establishment of baseline levels of food intake, locomotor activity, heart rate and blood pressure. […]
# [3] = Real-time feeding monitoring (food intake) in telemetrized rats; format: in vivo, rat; conditions: for effect on food intake per se: antihypertensive drug alone, p.o.; for effect on tesofensine-induced reduction in food intake: co-administered with tesofensine 3.0 mg/kg p.o., Metoprolol 10, 20 mg/kg, Telmisartan 1.0, 3.0 mg/kg p.o.
# Method: as §1
# (§2) Upon 2-3 weeks of post-surgery recovery, the rats were transferred to fully automated food intake monitoring cages (HM-2, MBRose, Faaborg, Denmark) modified to simultaneously determine individualized food intake (by microchip, see below) and cardiovascular condition (by telemetry). For combined telemetry analysis, two receivers (RPC-1, Data Sciences International, St. Paul, Minn.) were placed in the bottom of each HM-2 food intake monitoring cages thereby fully covering the cage surface area. The modified HM-2 food intake monitoring cages were placed in a modified ventilated cabinet with lightproof doors and a light kit for cabinet-based control of light-dark cycle (Scanbur BK, Karslunde, Denmark) being similar to that in the holding rooms. Cabinet temperature was 24.0 to 26.0° C. and relative air humidity of 40 to 60%. The animals were habituated to the HM-2 food intake monitoring system for at least 5 days prior to initiation of drug treatment procedures. Prior to re-housing to the fully automated food intake monitoring cages, the rats were subcutaneuosly injected with a microchip (#402575, eVet, Haderslev, Denmark) to simultaneously identify, and in real-time mode to track feeding behavior of each individual animal throughout the entire experiment. Locomotor activity was detected by an integrated infrared sensor placed above the cage. Standard HM-2 control unit settings are reported previously in further details^7. All drugs and saline vehicle were administered 30 min before dark onset. All rats received the same treatment in each individual experiment, i.e. a parallel study design was used, and a wash-out period of at least 5 days was used between treatments to assure re-establishment of baseline levels of food intake, locomotor activity, heart rate and blood pressure. The home cage was removed from the HM-2 food intake monitoring system during the drug administration procedure and returned immediately after completion of the drug administration, whereupon automated monitoring of feeding behavior and cardiovascular parameters of each individual animal was resumed. Body weight was measured daily. Body weight and microstructural food intake analysis was performed using a data reporting software (HMView, MBRose, Faaborg, Denmark).
# (§3) Data were fed into a standard graphic and statistical analysis program (GraphPad Prism v.4.03). Body weight data were calculated as absolute values (g) or daily body weight gain relative (control level=100%) to the first day of drug administration (day 0). Body weight gain and food intake were expressed as means±S.E.M of n individual animals. After acquisition of telemetry data, 12-hour means were calculated using Microsoft Excel 2007. Finally, statistical analysis and data presentation (mean±S.E.M.) was performed using GraphPad Prism v.4.03). All data were evaluated using a repeated-measure one-way ANOVA with Tukey's post-hoc test was applied to perform statistical comparisons between treatment groups. A p-value less than 0.05 was considered statistically significant.
# (§4) All drugs were administered p.o. (1.0 ml/kg). […]
# [4] = Body weight in telemetrized rats; format: in vivo, rat; conditions: for effect on body weight regulation per se: antihypertensive drug alone, p.o.; for effect on tesofensine-induced reduction in body weight: co-administered with tesofensine 3.0 mg/kg p.o., Metoprolol 10, 20 mg/kg, Telmisartan 1.0, 3.0 mg/kg p.o.
# Method: as §1, §2, §3, §4
# [5] = long-term treatment, corrected for placebo and diet effects; cited from earlier work
# [6] = tesofensine 1.0-5.0 mg/kg p.o., acute
# [7] = 3.0-5.0 mg/kg p.o., acute, evident for at least 48 hours, compared to vehicle-treated rats
smiles,measurement,setting,value
"COCCc1ccc(OCC(O)CNC(C)C)cc1 (centres unmarked) [Metoprolol, 1-(Isopropylamino)-3-[4-(2-methoxyethyl)-phenoxy]-propan-2-ol]",effect on tesofensine-induced locomotor activity,"[1]; co-administered with tesofensine 3.0 mg/kg p.o., compared to tesofensine alone",completely prevented the locomotor activity inducing effect by tesofensine
same,effect on tesofensine-induced tachycardia,[2]; Metoprolol 10 mg/kg and 20 mg/kg co-treatment with tesofensine 3.0 mg/kg p.o.,fully reversed tesofensine-induced tachycardia
same,effect on tesofensine-evoked increase in diastolic pressure,"[2]; Metoprolol 20 mg/kg co-treatment with tesofensine 3.0 mg/kg p.o., first light phase, 12-24 hours post-treatment",reversed by co-treatment with Metoprolol
same,effect on tesofensine-induced rise in systolic blood pressure,"[2]; Metoprolol 20 mg/kg co-treatment with tesofensine 3.0 mg/kg p.o., for up to 24 hours",normalization of the systolic blood pressure
same,"diastolic blood pressure, drug alone","[2]; Metoprolol 20 mg/kg p.o. alone, first 24 hours",did not produce any significant effects on diastolic blood pressure
same,duration of heart rate lowering effect,"[2]; Metoprolol 10 and 20 mg/kg p.o., after administration",up to 24 hours
same,effect on food intake per se,[3],neither antihypertensive drug exhibited an effect
same,effect on tesofensine-induced reduction in food intake,[3],did also not affect tesofensine-induced reductions in food intake
same,effect on body weight regulation per se,[4],neither antihypertensive drug exhibited an effect
same,effect on tesofensine-induced reduction in body weight,[4],did also not affect
CCCc1nc2c(C)cc(-c3nc4ccccc4n3C)cc2n1Cc1ccc(-c2ccccc2C(=O)O)cc1 [Telmisartan],effect on tesofensine-induced rise in heart rate,[2]; Telmisartan 1.0 and 3.0 co-treatment with tesofensine 3.0 mg/kg p.o.,did not revert the rise in heart rate
same,"heart rate and blood pressure, drug alone",[2]; Telmisartan alone 3.0 mg/kg p.o.,no effect on heart rate and blood pressure
same,effect on Tesofensine-induced increases in diastolic and systolic blood pressure,"[2]; Telmisartan co-treatment with tesofensine 3.0 mg/kg p.o., p>0.05 compared to Tesofensine alone",did not lead to a significant prevention of Tesofensine-induced hypertension
same,heart rate compared to tesofensine alone,[2]; highest dose of Telmisartan (3.0 mg/kg) combined with tesofensine 3.0 mg/kg p.o.,significant increase in heart rate as compared to tesofensine administration alone
same,effect on food intake per se,[3],neither antihypertensive drug exhibited an effect
same,effect on tesofensine-induced reduction in food intake,[3],did also not affect tesofensine-induced reductions in food intake
same,effect on body weight regulation per se,[4],neither antihypertensive drug exhibited an effect
same,effect on tesofensine-induced reduction in body weight,[4],did also not affect
CCOC[C@@H]1[C@@H](c2ccc(Cl)c(Cl)c2)C[C@@H]2CC[C@H]1N2C [Tesofensine],locomotor activity,"[1]; 3.0-5.0 mg/kg p.o., acute","significant, albeit short-lasting, increase in locomotor activity"
same,duration of induced locomotor activity,[1]; first dark phase after acute dosing,up to 12 hours
same,weight loss in obese patients,[5],about 10%
same,systolic blood pressure,"[2]; tesofensine 3.0 mg/kg and 5.0 mg/kg p.o., up to 48 hours after administration",dose-dependent modest increase in systolic blood pressure
same,heart rate,"[2]; tesofensine 3.0 mg/kg p.o., Telmisartan combination study",significantly increase heart rate
same,duration of heart rate increase,[2]; [6],up to 48 hours
same,heart rate,[2]; [6],dose-dependent increase in heart rate at all doses tested
same,diastolic blood pressure,"[2]; tesofensine 1.0-5.0 mg/kg p.o., highest dose not significant (p=0.204)",trend towards a dose-dependent rise in diastolic blood pressure
same,duration of hypophagic effect,"[3]; 5.0 mg/kg p.o., acute",≤ 48 h
same,duration of hypophagic effect,"[3]; 3.0-5.0 mg/kg p.o., acute",≤ 24 h
same,duration of hypophagic effect,"[3]; all doses (1.0-5.0 mg/kg p.o.), acute",up to 12 hours
same,food intake relative to the control level,"[3]; tesofensine 5.0 mg/kg p.o., acute, 12 hours post-dosing, p<0.001",approximately 50%
same,net body weight loss (absolute),[4]; [7],8 to 11 g
same,net body weight loss (relative),[4]; [7],1.0-1.5%

# From US9387184B2, “Pharmaceutical compositions for combination therapy” (Saniona A/S, priority 2012, dated 2016)
